Reference: US7595401B2, “Therapeutic compounds and their use in cancer” (Myriad Pharmaceuticals, Inc., priority 2006, dated 2009)

What follows are compounds tested on purified human Hsp90 (assay: Binding Assay: fluorescence polarization with BODIPY-labeled geldanamycin). Details: 5 μM compound, BODIPY-GM 10 nM, Hsp90 30 nM.
Method in brief: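 Compounds in 2% DMSO final compete with 10 nM BODIPY-GM for 30 nM purified human Hsp90, incubated overnight at room temperature in pH 7.3 HEPES buffer containing Na2MoO4 and DTT. Polarization (mP, ex/em 485/530) normalized to DMSO gives percent inhibition; autofluorescence-confounded data excluded.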

Row | Compound | % Inhibition at 5 μM Compound Concentration
1 | Nc1ncn(CCc2c(Cl)cccc2Cl)c2nc(Sc3cc4c(cc3Br)OCO4)nc1-2 [Example 129, 8-(6-bromo-benzo[1,3]dioxol-5-ylsulfanyl)-3-[2-(2,6-dichloro-phenyl)-ethyl]-3H-purin-6-ylamine] | 54%
2 | CC1(C)CC(CCn2cnc(N)c3nc(Sc4cc5c(cc4Br)OCO5)nc2-3)CC(C)(C)N1 [Example 351, 8-[(6-Bromo-1,3-benzodioxol-5-yl)thio]-3-[2-(2,2,6,6-tetramethylpiperidin-4-yl)ethyl]-3H-purin-6-amine] | 8%
3 | CCOC(=O)N1CCCCC1CCn1cnc(N)c2nc(Sc3cc(OC)ccc3OC)nc1-2 (stereo not shown) [Example 338, 2-{2-[6-amino-8-(2,5-dimethoxy-phenylsulfanyl)-purin-3-yl]-ethyl}-piperidine-1-carboxylic acid ethyl ester] | 0%
4 | CC(C)(C)OC(=O)N1CCC[C@H]1C(=O)N1CCC(CCn2cnc(N)c3nc(Sc4cc5c(cc4Br)OCO5)nc2-3)CC1 [Example 731, tert-Butyl(2S)-2-{[4-(2-{6-amino-8-[(6-bromo-1,3-benzodioxol-5-yl)thio]-3H-purin-3-yl}ethyl)piperidin-1-yl]carbonyl}pyrrolidine-1-carboxylate] | 1.0%
5 | COc1ccc(OC)c(Sc2nc3c(N)ncnc3n2CC(O)c2ccc(Cl)cc2Cl)c1 (stereo not shown) [Example 107, 2-[6-Amino-8-(2,5-dimethoxy-phenylsulfanyl)-purin-9-yl]-1-(2,4-dichloro-phenyl)ethanol] | 0%
6 | CC(C)N1CCN(CCn2cnc(N)c3nc(Sc4cc5c(cc4Br)OCO5)nc2-3)CC1 [Example 488, 8-[(6-Bromo-1,3-benzodioxol-5-yl)thio]-3-[2-(4-isopropylpiperazin-1-yl)ethyl]-3H-purin-6-amine] | 29%
7 | COc1ccc(OC)c(Sc2nc3c(N)ncnc3n2CCc2ccc(F)cc2F)c1 [Example 121, 9-[2-(2,4-Difluoro-phenyl)-ethyl]-8-(2,5-dimethoxy-phenylsulfanyl)-9H-purine-6-ylamine] | 54%
8 | COc1ccc(OC)c(Sc2nc3c(N)ncn(CCc4ccsc4)c-3n2)c1 [Example 198, 8-(2,5-dimethoxy-phenylsulfanyl)-3-(2-thiophen-3-yl-ethyl)-3H-purin-6-ylamine] | 18%
9 | COc1ccc(OC)c(Sc2nc3c(N)ncn(CCC(NC(=O)OC(C)(C)C)C4CCSCC4)c-3n2)c1 (stereo not shown) [Example 669, tert-Butyl[3-{6-amino-8-[(2,5-dimethoxyphenyl)thio]-3H-purin-3-yl}-1-(tetrahydro-2H-thiopyran-4-yl)propyl]carbamate] | 10%
10 | Nc1ncn(CCC2CC3CCC(C2)O3)c2nc(Sc3cc4c(cc3Br)OCO4)nc1-2 (stereo not shown) [Example 606] | 49.00%
11 | COc1ccc(OC)c(Sc2nc3c(N)ncn(CCc4ccccc4[N+](=O)[O-])c-3n2)c1 [Example 206, 8-(2,5-dimethoxy-phenylsulfanyl)-3-[2-(2-nitro-phenyl)-ethyl]-3H-purin-6-ylamine] | 0%
12 | Nc1ncnc2c1nc(Sc1cc3c(cc1Br)OCO3)n2CCc1cccc2ccccc12 [Example 157, 8-(6-Bromo-benzo[1,3]dioxol-5-ylsulfanyl)-9-(2-naphthalen-1-yl-ethyl)-9H-purin-6-ylamine] | 58%
13 | CCOC(=O)N1CCCCC1CCn1cnc(N)c2nc(Sc3cc4c(cc3Br)OCO4)nc1-2 (stereo not shown) [Example 340, Ethyl 2-(2-{6-amino-8-[(6-bromo-1,3-benzodioxol-5-yl)thio]-3H-purin-3-carboxylate] | 23%

Same assay, conditions: BODIPY-GM 10 nM, Hsp90 30 nM

Row | Compound | IC50
14 | CO[C@@H](C)C(=O)N1CCC(CCn2cnc(N)c3nc(Sc4cc5c(cc4Br)OCO5)nc2-3)CC1 [Example 727, 8-[(6-Bromo-1,3-benzodioxol-5-yl)thio]-3-(2-{1-[(2S)-2-methoxypropanoyl]piperidin-4-yl}ethyl)-3 H-purin-6-amine] | 32000 nM
15 | CC(=O)N1CCC(CCn2c(Sc3ccc4c(c3)OCO4)nc3c(N)ncnc32)CC1 [Example 561, 9-[2-(1-Acetylpiperidin-4-yl)ethyl]-8-(1,3-benzodioxol-5-ylthio)-9 H-purin-6-amine] | > 5000 nM
16 | Nc1ncnc2c1nc(Sc1cccc(OC(F)F)c1)n2CCc1c(F)cccc1Cl [Example 254, 9-[2-(2-Chloro-6-fluorophenyl)ethyl]-8-{[3-(difluoromethoxy)phenyl]thio}-9H-purin-6-amine] | > 8000 nM
17 | COc1ccc(OC)c(Sc2nc3c(N)ncnc3n2CC2(c3ccc(Cl)cc3)CCC2)c1 [Example 61, 9-[1-(4-Chloro-phenyl)-cyclobutylmethyl]-8-(2,5-dimethoxy-phenylsulfanyl)-9H-purin-6-ylamine] | > 10000 nM
18 | COc1ccc(OC)c(Sc2nc3c(N)ncnc3n2CCc2ccc(F)cc2F)c1 [Example 121, 9-[2-(2,4-Difluoro-phenyl)-ethyl]-8-(2,5-dimethoxy-phenylsulfanyl)-9H-purine-6-ylamine] | 520 nM
19 | COc1ccc(OC)c(Sc2nc3c(N)ncnc3n2CCN2CCN(C(=O)C(C)(C)C)CC2)c1 [Example 444, 8-[(2,5-Dimethoxyphenyl)thio]-9-{2-[4-(2,2-dimethylpropanoyl)piperazin-1-yl]ethyl}-9H-purin-6-amine] | 1100 nM
20 | Cc1ccc(C)c(CCn2c(Sc3cc4c(cc3Br)OCO4)nc3c(N)ncnc32)c1 [Example 124, 8-(6-Bromo-benzo[1,3]dioxol-5-ylsulfanyl)-9-[2-(2,5-dimethyl-phenyl)-ethyl]-9H-purin-6-ylamine] | 220 nM
21 | Nc1ncnc2c1nc(Sc1cc3c(cc1Br)OCCO3)n2CCc1ccccc1Cl [Example 233, 8-[(7-Bromo-2,3-dihydro-1,4-benzodioxin-6-yl)thio]-9-[2-(2-chlorophenyl)ethyl]-9H-purin-6-amine] | 500 nM
22 | CC(C)(C)OC(=O)N1CC(CCn2c(Sc3cc4c(cc3Br)OCO4)nc3c(N)ncnc32)C1 [Example 458, tert-Butyl 3-(2-{6-amino-8-[(6-bromo-1,3-benzodioxol-5-yl)thio]-9H-purin-9-yl}ethyl)azetidine-1-carboxylate] | 380 nM
23 | Nc1ncnc2c1nc(Sc1cc3c(cc1Br)OCO3)n2CCc1c(Cl)cccc1Cl [Example 128, 8-(6-Bromo-benzo[1,3]dioxol-5-ylsulfanyl)-9-[2-(2,6-dichloro-phenyl)-ethyl]-9H-purin-6-ylamine] | 66 nM
24 | Nc1ncnc2c1nc(Sc1cc3c(cc1Br)OCO3)n2CC1(c2ccc(Cl)cc2)CCC1 [Example 95, 8-(6-Bromo-benzo[1,3]dioxol-5-ylsulfanyl)-9-[1-(4-chloro-phenyl)-cyclobutylmethyl]-9H-purin-6-ylamine] | > 3000 nM
25 | COc1cc(Sc2nc3c(N)ncnc3n2CCC2CCN(C=O)CC2)cc(OC)c1OC [Example 540, 4-(2-{6-Amino-8-[(3,4,5-trimethoxyphenyl)thio]-9 H-purin-9-yl}ethyl)piperidine-1-carbaldehyde] | > 5000 nM
26 | CN(C)c1ccc(CCn2c(Sc3cc4c(cc3Br)OCO4)nc3c(N)ncnc32)cc1 [Example 187, 8-(6-Bromo-benzo[1,3]dioxol-5-ylsulfanyl)-9-[2-(4-dimethylamino-phenyl)-ethyl]-9H-purin-6-ylamine] | > 2500 nM
27 | CC(C)[C@H]1C[C@H](CCn2c(Sc3cc4c(cc3Br)OCO4)nc3c(N)ncnc32)CCN1 (relative stereo) [Example 479, 8-[(6-bromo-1,3-benzodioxol-5-yl)thio]-9-{2-[trans-2-isopropylpiperidin-4-yl]ethyl}-9 H-purin-6-amine] | 199 nM
28 | COc1cc(C#N)c(Sc2nc3c(N)ncnc3n2CCC2CCN(C(C)=O)CC2)cc1OC [Example 622, 2-({9-[2-(1-Acetylpiperidin-4-yl)ethyl]-6-amino-9 H-purin-8-yl}thio)-4,5-dimethoxybenzonitrile] | > 5000 nM
29 | O=c1[nH]cnc2c1nc(Sc1ccc3c(c1)OCO3)n2CCc1ccccc1 [Example 224, 8-(Benzo[1,3]dioxol-5-ylsulfanyl)-9-phenethyl-1,9-dihydro-purin-6-one] | > 5000 nM
30 | COc1ccc(OC)c(Sc2nc3c(N)ncnc3n2CCN2CCN(C)CC2)c1 [Example 631, 8-[(2,5-Dimethoxyphenyl)thio]-9-[2-(4-methylpiperazin-1-yl)ethyl]-9 H-purin-6-amine] | 2000 nM
31 | CC(=O)N1CCC(CCn2c(Sc3nc4ccc(F)cc4s3)nc3c(N)ncnc32)CC1 [Example 655, 9-[2-(1-Acetylpiperidin-4-yl)ethyl]-8-[(6-fluoro-1,3-benzothiazol-2-yl)thio]-9H-purin-6-amine] | > 5000 nM
32 | Nc1ncnc2c1nc(Sc1cc3c(cc1Br)OCO3)n2CCc1cccc2ccccc12 [Example 157, 8-(6-Bromo-benzo[1,3]dioxol-5-ylsulfanyl)-9-(2-naphthalen-1-yl-ethyl)-9H-purin-6-ylamine] | 500 nM
33 | COc1ccc(OC)c(Sc2nc3c(N)ncn(CCc4ccc(C(C)=O)cc4)c-3n2)c1 [Example 64, 1-(4-{2-[6-amino-8-(2,5-dimethoxy-phenylsulfanyl)-purin-3-yl]-ethyl}-phenyl)-ethanone] | > 5000 nM
34 | COc1ccc(OC)c(Sc2nc3c(N)ncnc3n2CCN2CCN(C3CCCC3)CC2)c1 [Example 494, 9-[2-(4-Cyclopentylpiperazin-1-yl)ethyl]-8-[(2,5-dimethoxyphenyl)thio]-9 H-purin-6-amine] | 5500 nM
35 | Nc1ncnc2c1nc(S(=O)(=O)c1ccc(Cl)cc1)n2CCc1ccccc1 [Example 17, 8-(4-Chloro-phenylsulfonyl)-9-phenethyl-9H-purin-6-ylamine] | > 10000 nM
36 | CC(C)(C)OC(=O)N1CCC[C@H](CCn2c(Sc3cc4c(cc3Br)OCO4)nc3c(N)ncnc32)C1 [Example 392, tert-Butyl (3R)-3-(2-{6-amino-8-[(6-bromo-1,3-benzodioxol-5-yl)thio]-9H-purin-9-yl}ethyl)piperidine-1-carboxylate] | 2900 nM
37 | C[C@H](NC(=O)OC(C)(C)C)C(=O)N1CCC(CCn2c(Sc3cc4c(cc3Br)OCO4)nc3c(N)ncnc32)CC1 [Example 693, [(S)-2-(4-{2-[6-Amino-8-(6-bromo-benzo[1,3]dioxol-5-ylsulfanyl) -purin-9-yl]-ethyl}-piperidin-1-yl)-1-methyl-2-oxo-ethyl]-carbamic acid tert-butyl ester] | 59 nM
